The target in one assay is T1, human orexin-2 receptor (Homo sapiens, UniProt O43614).
T1 construct: expressed in transfected cells; host or cells: Chinese hamster ovary (CHO) cells
T1 sequence (O43614 1-444): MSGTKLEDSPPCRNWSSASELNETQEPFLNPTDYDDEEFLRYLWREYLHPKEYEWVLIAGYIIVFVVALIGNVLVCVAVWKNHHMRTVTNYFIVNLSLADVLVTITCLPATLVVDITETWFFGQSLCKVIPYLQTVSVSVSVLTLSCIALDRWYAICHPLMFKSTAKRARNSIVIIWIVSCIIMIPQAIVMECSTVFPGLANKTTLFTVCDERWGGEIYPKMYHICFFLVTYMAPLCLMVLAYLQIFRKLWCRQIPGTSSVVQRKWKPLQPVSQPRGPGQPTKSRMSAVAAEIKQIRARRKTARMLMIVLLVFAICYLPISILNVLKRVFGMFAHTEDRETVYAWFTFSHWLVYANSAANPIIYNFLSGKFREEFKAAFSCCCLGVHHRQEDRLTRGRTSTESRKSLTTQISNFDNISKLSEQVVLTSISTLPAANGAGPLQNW
Briefly: FLIPR calcium assay of orexin receptor antagonistic activity, CHO cells expressing the human orexin-2 receptor. Particulars: 3 nM orexin-A as agonist. The format is cell-based. Here is the method:
(§1) The orexin receptor antagonistic activity of the compounds of formula (I) is determined in accordance with the following experimental method.
(§2) Chinese hamster ovary (CHO) cells expressing the human orexin-1 receptor and the human orexin-2 receptor, respectively, are grown in culture medium (Ham F-12 with L-Glutamine) containing 300 μg/ml G418, 100 U/ml penicillin, 100 μg/ml streptomycin and 10% heat inactivated fetal calf serum (FCS). The cells are seeded at 20′000 cells/well into 384-well black clear bottom sterile plates (Greiner). The seeded plates are incubated overnight at 37° C. in 5% CO2.
(§3) Human orexin-A as an agonist is prepared as 1 mM stock solution in MeOH:water (1:1), diluted in HBSS containing 0.1% bovine serum albumin (BSA), NaHCO3: 0.375 g/l and 20 mM HEPES for use in the assay at a final concentration of 3 nM.
(§4) Antagonists are prepared as 10 mM stock solution in DMSO, then diluted in 384-well plates using DMSO followed by a transfer of the dilutions into in HBSS containing 0.1% bovine serum albumin (BSA), NaHCO3: 0.375 g/l and 20 mM HEPES. On the day of the assay, 50 μl of staining buffer (HBSS containing 1% FCS, 20 mM HEPES, NaHCO3: 0.375 g/l, 5 mM probenecid (Sigma) and 3 μM of the fluorescent calcium indicator fluo-4 AM (1 mM stock solution in DMSO, containing 10% pluronic) is added to each well. The 384-well cell-plates are incubated for 50 min at 37° C. in 5% CO2 followed by equilibration at RT for 30-120 min before measurement.
(§5) Within the Fluorescent Imaging Plate Reader (FLIPR Tetra, Molecular Devices), antagonists are added to the plate in a volume of […], incubated for 10 min and finally […] of agonist is added. Fluorescence is measured for each well at 1 second intervals, and the height of each fluorescence peak is compared to the height of the fluorescence peak induced by 3 nM orexin-A with vehicle in place of antagonist. For each antagonist, the IC50 value (the concentration of compound needed to inhibit 50% of the agonistic response) is determined and may be normalized using the obtained IC50 value of a on-plate reference compound (normalized values in Table 1 indicated by an asterisk*).
(§6) The calculated IC50 values of the compounds may fluctuate depending on the daily cellular assay performance. Fluctuations of this kind are known to those skilled in the art.

The next assay deals with T2, human orexin-1 receptor (Homo sapiens, UniProt O43613).
T2 construct: expressed in transfected cells; host or cells: Chinese hamster ovary (CHO) cells
T2 sequence (O43613 1-425): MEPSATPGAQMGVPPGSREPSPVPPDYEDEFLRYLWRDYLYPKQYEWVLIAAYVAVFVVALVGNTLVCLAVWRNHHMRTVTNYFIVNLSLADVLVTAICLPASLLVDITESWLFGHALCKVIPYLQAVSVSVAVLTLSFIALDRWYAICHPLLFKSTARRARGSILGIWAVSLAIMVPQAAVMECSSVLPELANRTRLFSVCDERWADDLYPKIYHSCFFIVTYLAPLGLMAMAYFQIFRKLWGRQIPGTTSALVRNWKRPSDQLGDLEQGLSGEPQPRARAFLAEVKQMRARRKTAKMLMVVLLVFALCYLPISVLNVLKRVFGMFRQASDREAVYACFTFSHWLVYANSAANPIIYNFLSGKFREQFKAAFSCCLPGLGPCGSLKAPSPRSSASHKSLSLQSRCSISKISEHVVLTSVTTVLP
The experiment in a line: FLIPR calcium assay of orexin receptor antagonistic activity, CHO cells expressing the human orexin-1 receptor. Format: cell-based. Particulars: 3 nM orexin-A as agonist. Here is the method: as §1, §2, §3, §4, §5, §6

The subject of assay [1] is rat. Particulars: cited from earlier work.
Assay [2] has as its system rat. The settings on record: cited from earlier work. This is another data set of the same source.
Assay [3] concerns rat. Particulars: rat model; cited from earlier work.
The mark [4] stands for this setting: value not normalized, read-out: OX2 IC50.
[5] abbreviates: value not normalized, read-out: OX1 IC50.
Where [6] appears, read: normalized using IC50 of on-plate reference compound (asterisk), read-out: OX2 IC50 (in nM), normalized value.
The mark [7] stands for this setting: normalized using IC50 of on-plate reference compound (asterisk), read-out: OX1 IC50 (in nM), normalized value.

Like-named read-outs stand apart in the source and are kept apart here.

As a reminder, the IC50 is the concentration that inhibits the measured activity by half. `CNC(=O)[C@@H](c1ccccc1)N1CCn2c(C(F)(F)F)nc(C)c2[C@@H]1CCc1ccc(C(F)(F)F)cc1` [Example 13a, N-methyl-(R)-2′-{1-methyl-3-trifluoromethyl-(S)-8-[2-(4-trifluoromethyl-phenyl)-ethyl]-5,6-dihydro-8H-imidazo[1,5-a]pyrazin-7-yl}-2′-phenyl-acetamide]: the IC50 on human orexin-2 receptor (setting [4]) amounted to 8 nM; at human orexin-1 receptor (setting [5]), 259 nM.

For `CCOc1nc(C(F)(F)F)c2n1CCN([C@@H](C(=O)NC)c1ccccc1)[C@H]2CCc1ccc(C(F)(F)F)cc1` [Example 21, (R)-2′-{3-ethoxy-1-trifluoromethyl-(S)-8-[2-(4-trifluoromethyl-phenyl)-ethyl]-5,6-dihydro-8H-imidazo[1,5-a]pyrazin-7-yl}-N-methyl-2′-phenyl-acetamide], the IC50 on human orexin-2 receptor (setting [6]) was found to be 63 nM; on human orexin-1 receptor (setting [7]), 3540 nM.

For `CCc1nc(C2CC2)n2c1C(CCc1ccc(C(F)(F)F)c(F)c1)N(C(C(=O)NC)c1ccccc1)CC2` [Example 17, (R)-2′-{3-cyclopropyl-1-ethyl-(8)-8-[2-(3-fluoro-4-trifluoromethyl-phenyl)-ethyl]-5,6-dihydro-8H-imidazo[1,5-a]pyrazin-7-yl}-N-methyl-2′-phenyl-acetamide], the IC50 at human orexin-2 receptor (setting [6]) is 8 nM; on human orexin-1 receptor (setting [7]), 384 nM.

As for `CNC(=O)[C@@H](c1ccccc1)N1CCn2c(C3CC3)nc(Cl)c2[C@@H]1CCc1cccc(C(F)(F)F)c1` [Example 26, (R)-2′-{1-chloro-3-cyclopropyl-(S)-8-[2-(3-trifluoromethyl-phenyl)-ethyl]-5,6-dihydro-8H-imidazo[1,5-a]pyrazin-7-yl}-N-methyl-2′-phenyl-acetamide], the IC50 at human orexin-2 receptor (setting [6]) came to 7 nM; at human orexin-1 receptor (setting [7]) it was 91 nM.

Consider `CNC(=O)[C@@H](c1ccccc1)N1CCc2cc(OC)c(OC)cc2[C@@H]1CCc1ccc(C(F)(F)F)cc1` [(2R)-2-{(1S)-6,7-dimethoxy-1-[2-(4-trifluoromethyl-phenyl)-ethyl]-3,4-dihydro-1H-isoquinolin-2-yl}-N-methyl-2-phenyl-acetamide], for which, in the assay with rat [1], the “activity in post-traumatic stress disorder model” value is reported as “active”. In the assay with rat [2], the “alertness (active wake and locomotion)” value is “decrease alertness”; the “time spent in both REM and NREM sleep” value was “dose-dependently increase the time spent in both REM and NREM sleep”. In addition, the memory function entry in the assay with rat [3] is recorded as “enhance memory function”.

Consider `CNC(=O)[C@@H](c1ccccc1)N1CCn2c(SC)nc(Cl)c2[C@@H]1CCc1ccc(C(F)(F)F)c(F)c1F` [Example 8, (R)-2′-{1-chloro-(8)-8-[2-(2,3-difluoro-4-trifluoromethyl-phenyl)-ethyl]-3-methylsulfanyl-5,6-dihydro-8H-imidazo[1,5-a]pyrazin-7-yl}-N-methyl-2′-phenyl-acetamide], for which the IC50 on human orexin-2 receptor (setting [4]) turned out to be 21 nM; at human orexin-1 receptor (setting [5]) it was 56 nM.

Take `CNC(=O)[C@@H](c1ccccc1)N1CCn2c(C3CC3)nc(Cl)c2[C@@H]1CCc1ccc(Cl)c(F)c1` [Example 3, (R)-2′-{1-chloro-(S)-8-[2-(4-chloro-3-fluoro-phenyl)-ethyl]-3-cyclopropyl-5,6-dihydro-8H-imidazo[1,5-a]pyrazin-7-yl}-N-methyl-2′-phenyl-acetamide]: the results for the IC50 at human orexin-2 receptor (setting [4]) and on human orexin-1 receptor (setting [5]) were 11 nM and 43 nM, respectively.

As to `CCc1nc(C(F)(F)F)n2c1[C@H](CCc1ccc(C(F)(F)F)cc1)N([C@@H](C(=O)NC)c1ccccc1)CC2` [Example 28, (R)-2′-{1-ethyl-3-trifluoromethyl-(8)-8-[2-(4-trifluoromethyl-phenyl)-ethyl]-5,6-dihydro-8H-imidazo[1,5-a]pyrazin-7-yl}-N-methyl-2′-phenyl-acetamide], the IC50 turned out to be 13 nM at human orexin-2 receptor (setting [6]) and 505 nM on human orexin-1 receptor (setting [7]).

In the case of `CCc1nc(S(C)(=O)=O)c2n1CCN([C@@H](C(=O)NC)c1ccccc1)[C@H]2CCc1ccc(C(F)(F)F)cc1` [Example 23, (R)-2′-{3-ethyl-1-methanesulfonyl-(S)-8-[2-(4-trifluoromethyl-phenyl)-ethyl]-5,6-dihydro-8H-imidazo[1,5-a]pyrazin-7-yl}-N-methyl-2′-phenyl-acetamide], the IC50 at human orexin-2 receptor (setting [6]) worked out at 25 nM; at human orexin-1 receptor (setting [7]), 1680 nM.

Regarding `CCc1nc(Cl)c2n1CCN([C@@H](C(=O)NC)c1ccccc1)[C@H]2CCc1cccc(OC(F)F)c1` [Example 11, (R)-2′-{1-chloro-(S)-8-[2-(3-difluoromethoxy-phenyl)-ethyl]-3-ethyl-5,6-dihydro-8H-imidazo[1,5-a]pyrazin-7-yl}-N-methyl-2′-phenyl-acetamide], the IC50 at human orexin-2 receptor (setting [4]) was found to be 2 nM; at human orexin-1 receptor (setting [5]) it was 45 nM.
